Data: patent US10323018B2 (Millennium Pharmaceuticals, Inc., priority 2015, dated 2019)
One block for each compound: values may come before it.

Experiments:
hNAMPT protein = hNAMPT protein (Homo sapiens (Human), UniProt P43490); assay: NAMPT enzyme assay (TR-FRET/HTRF with BodiPY ligand); format: binding; conditions: for inhibition at 1 µM: NAMPT inhibition at compound concentration 1 μM, read-out: Percent Inhibition; for IC50: NAMPT inhibition, IC50 range class
Summary of the method: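 Ligand displacement by TR-FRET: BodiPY emission (520 nm) over terbium (486 nm) after 320 nm excitation. Compound, BodiPY ligand, hNAMPT and anti-6His-Tb incubated 1 h at room temperature, dark, at pH 7.5. Percent inhibition computed versus DMSO; concentration-response curves fitted for IC50.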

PC3 cells = assay: PC3 growth inhibition (Cell-titer glo, 72 hours); format: cell-based; conditions: Homo sapiens, PC-3, 72 h, read-out: Percent Viability, PC3 cells, compound concentration 1.667 μM, 72 hours
Summary of the method: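 After 72 h compound treatment in AIM serum-free medium (37 °C, 5% CO2), viability of overnight-plated PC3 cells (8×10^4 cells/ml, RPMI1640-maintained) is read by CellTiter-Glo luminescence versus DMSO. Curves give GI50, LD50 or single-concentration % remaining viability.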

hNAMPT protein, sequence (P43490 whole entry): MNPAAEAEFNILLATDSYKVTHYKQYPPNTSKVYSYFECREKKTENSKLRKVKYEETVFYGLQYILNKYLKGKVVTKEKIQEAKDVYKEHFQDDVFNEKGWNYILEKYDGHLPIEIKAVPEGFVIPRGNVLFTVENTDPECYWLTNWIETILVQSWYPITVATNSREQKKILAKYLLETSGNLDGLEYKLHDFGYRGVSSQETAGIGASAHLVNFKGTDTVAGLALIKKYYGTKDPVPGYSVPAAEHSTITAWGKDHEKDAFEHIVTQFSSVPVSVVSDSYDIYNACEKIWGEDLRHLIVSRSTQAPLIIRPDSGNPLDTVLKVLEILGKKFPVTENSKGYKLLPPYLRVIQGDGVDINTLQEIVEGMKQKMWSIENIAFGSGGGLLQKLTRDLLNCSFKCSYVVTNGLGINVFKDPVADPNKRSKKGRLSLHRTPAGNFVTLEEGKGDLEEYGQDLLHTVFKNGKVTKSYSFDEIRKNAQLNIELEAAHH

Compound: CCOc1cc(-c2ccnc(OC)c2)nc2cc(C(=O)NCCc3c[nH]nc3C)ccc12 [Compound I-100, 4-ethoxy-2-(2-methoxypyridin-4-yl)-N-[2-(3-methyl-1H-pyrazol-4-yl)ethyl]quinoline-7-carboxamide]
inhibition at 1 µM (hNAMPT protein): 92%
IC50 (hNAMPT protein): 50 to 100 nM
viability at 1.667 µM (PC3 cells): 2%

Compound: CCOc1cc(-c2ccc(OC)nc2)nc2cc(C(=O)NCCCc3nnc[nH]3)ccc12 [Compound I-101, 4-ethoxy-2-(6-methoxypyridin-3-yl)-N-[3-(4H-1,2,4-triazol-3-yl)propyl]quinoline-7-carboxamide]
inhibition at 1 µM (hNAMPT protein): 96%
IC50 (hNAMPT protein): 10 to 50 nM
viability at 1.667 µM (PC3 cells): 2%

Compound: CCOc1cc(-c2ccc(OC)nc2)nc2cc(C(=O)NCCCc3cnn[nH]3)ccc12 [Compound I-102, 4-ethoxy-2-(6-methoxypyridin-3-yl)-N-[3-(1H-1,2,3-triazol-5-yl)propyl]quinoline-7-carboxamide]
inhibition at 1 µM (hNAMPT protein): 99%
IC50 (hNAMPT protein): < 10 nM
viability at 1.667 µM (PC3 cells): 2%

Compound: CCOc1cc(-c2ccc(C)nc2OC)nc2cc(C(=O)NCCCc3cnn[nH]3)ccc12 [Compound I-103, 4-ethoxy-2-(2-methoxy-6-methylpyridin-3-yl)-N-[3-(1H-1,2,3-triazol-5-yl)propyl]quinoline-7-carboxamide]
inhibition at 1 µM (hNAMPT protein): > 99%
IC50 (hNAMPT protein): 10 to 50 nM
viability at 1.667 µM (PC3 cells): 2%

Compound: CCOc1cc(-c2ccc(C)nc2OC)nc2cc(C(=O)NCCCc3ccn[nH]3)ccc12 [Compound I-104, 4-ethoxy-2-(2-methoxy-6-methylpyridin-3-yl)-N-[3-(1H-pyrazol-5-yl)propyl]quinoline-7-carboxamide]
inhibition at 1 µM (hNAMPT protein): 95%
IC50 (hNAMPT protein): 10 to 50 nM
viability at 1.667 µM (PC3 cells): 2%

Compound: CCOc1cc(-c2cccnc2OC)nc2cc(C(=O)NCCCc3cnn[nH]3)ccc12 [Compound I-105, 4-ethoxy-2-(2-methoxypyridin-3-yl)-N-[3-(1H-1,2,3-triazol-5-yl)propyl]quinoline-7-carboxamide]
inhibition at 1 µM (hNAMPT protein): 100%
IC50 (hNAMPT protein): 10 to 50 nM
viability at 1.667 µM (PC3 cells): 2%

Compound: CCOc1cc(-c2ccc(F)cc2OC)nc2cc(C(=O)NCCCc3[nH]nnc3C)ccc12 [Compound I-106, 4-ethoxy-2-(4-fluoro-2-methoxyphenyl)-N-[3-(4-methyl-1H-1,2,3-triazol-5-yl)propyl]quinoline-7-carboxamide]
inhibition at 1 µM (hNAMPT protein): 100%
IC50 (hNAMPT protein): 10 to 50 nM
viability at 1.667 µM (PC3 cells): 2%

Compound: CCOc1cc(-c2ccc(F)cc2)nc2cc(C(=O)NCCc3cnn[nH]3)ccc12 [Compound I-107, 4-ethoxy-2-(4-fluorophenyl)-N-[2-(1H-1,2,3-triazol-5-yl)ethyl]quinoline-7-carboxamide]
inhibition at 1 µM (hNAMPT protein): 99%
IC50 (hNAMPT protein): < 10 nM
viability at 1.667 µM (PC3 cells): 2%

inhibition at 1 µM (hNAMPT protein): 99%
IC50 (hNAMPT protein): 10 to 50 nM
Compound: CCOc1cc(-c2ccc(F)cc2OC)nc2cc(C(=O)NCCc3cnn[nH]3)ccc12 [Compound I-108, 4-ethoxy-2-(4-fluoro-2-methoxyphenyl)-N-[2-(1H-1,2,3-triazol-5-yl)ethyl]quinoline-7-carboxamide]
viability at 1.667 µM (PC3 cells): 3%

Compound: COCCOc1cc(-c2ccc(F)cc2)nc2cc(C(=O)NCCCc3cn[nH]n3)ccc12 [Compound I-109, 2-(4-fluorophenyl)-4-(2-methoxyethoxy)-N-[3-(2H-1,2,3-triazol-4-yl)propyl]quinoline-7-carboxamide]
inhibition at 1 µM (hNAMPT protein): 100%
IC50 (hNAMPT protein): 10 to 50 nM
viability at 1.667 µM (PC3 cells): 2%

Compound: CCOc1cc(-c2ccc(C)nc2)nc2cc(C(=O)NCCCc3cnn[nH]3)ccc12 [Compound I-110, 4-ethoxy-2-(6-methylpyridin-3-yl)-N-[3-(1H-1,2,3-triazol-5-yl)propyl]quinoline-7-carboxamide]
inhibition at 1 µM (hNAMPT protein): 100%
IC50 (hNAMPT protein): < 10 nM
viability at 1.667 µM (PC3 cells): 2%

Compound: CCOc1cc(-c2ccc(C)nc2)nc2cc(C(=O)NCCCc3cc[nH]n3)ccc12 [Compound I-111, 4-ethoxy-2-(6-methylpyridin-3-yl)-N-[3-(1H-pyrazol-3-yl)propyl]quinoline-7-carboxamide]
inhibition at 1 µM (hNAMPT protein): 97%
IC50 (hNAMPT protein): 10 to 50 nM
viability at 1.667 µM (PC3 cells): 2%

Compound: CCOc1cc(-c2ccc(C)nc2)nc2cc(C(=O)NCCCc3[nH]nnc3C)ccc12 [Compound I-112, 4-ethoxy-2-(6-methylpyridin-3-yl)-N-[3-(4-methyl-1H-1,2,3-triazol-5-yl)propyl]quinoline-7-carboxamide]
inhibition at 1 µM (hNAMPT protein): 99%
IC50 (hNAMPT protein): 10 to 50 nM
viability at 1.667 µM (PC3 cells): 2%

Compound: CCOc1cc(-c2ccc(C)nc2)nc2cc(C(=O)NCCc3c[nH]nc3C)ccc12 [Compound I-113, 4-ethoxy-N-[2-(3-methyl-1H-pyrazol-4-yl)ethyl]-2-(6-methylpyridin-3-yl)quinoline-7-carboxamide]
inhibition at 1 µM (hNAMPT protein): 97%
IC50 (hNAMPT protein): 10 to 50 nM
viability at 1.667 µM (PC3 cells): 2%

Compound: CCOc1cc(-c2ccnc(OC)c2)nc2cc(C(=O)NCCCc3nnc[nH]3)ccc12 [Compound I-114, 4-ethoxy-2-(2-methoxypyridin-4-yl)-N-[3-(4H-1,2,4-triazol-3-yl)propyl]quinoline-7-carboxamide]
inhibition at 1 µM (hNAMPT protein): 97%
IC50 (hNAMPT protein): 10 to 50 nM
viability at 1.667 µM (PC3 cells): 2%

Compound: CCOc1cc(-c2ccc(F)cc2)nc2cc(C(=O)NCCCc3cnn[nH]3)ccc12 [Compound I-115, 4-ethoxy-2-(4-fluorophenyl)-N-[3-(1H-1,2,3-triazol-5-yl)propyl]quinoline-7-carboxamide]
inhibition at 1 µM (hNAMPT protein): > 99%
IC50 (hNAMPT protein): < 10 nM
viability at 1.667 µM (PC3 cells): 2%

Compound: CCOc1cc(-c2ccnc(OC)c2)nc2cc(C(=O)NCCCc3cnn[nH]3)ccc12 [Compound I-116, 4-ethoxy-2-(2-methoxypyridin-4-yl)-N-[3-(1H-1,2,3-triazol-5-yl)propyl]quinoline-7-carboxamide]
inhibition at 1 µM (hNAMPT protein): 98%
IC50 (hNAMPT protein): < 10 nM
viability at 1.667 µM (PC3 cells): 2%

Compound: CCOc1cc(-c2ccnc(C)c2)nc2cc(C(=O)NCCCc3cnn[nH]3)ccc12 [Compound I-117, 4-ethoxy-2-(2-methylpyridin-4-yl)-N-[3-(1H-1,2,3-triazol-5-yl)propyl]quinoline-7-carboxamide]
inhibition at 1 µM (hNAMPT protein): 100%
IC50 (hNAMPT protein): < 10 nM
viability at 1.667 µM (PC3 cells): 2%

Compound: CCOc1cc(-c2ccn(C)c(=O)c2)nc2cc(C(=O)NCCCc3nnc[nH]3)ccc12 [Compound I-118, 4-ethoxy-2-(1-methyl-2-oxo-1,2-dihydropyridin-4-yl)-N-[3-(4H-1,2,4-triazol-3-yl)propyl]quinoline-7-carboxamide]
inhibition at 1 µM (hNAMPT protein): 99%
IC50 (hNAMPT protein): 10 to 50 nM
viability at 1.667 µM (PC3 cells): 2%

Compound: CCOc1cc(-c2ccn(C)c(=O)c2)nc2cc(C(=O)NCCCc3cc[nH]n3)ccc12 [Compound I-119, 4-ethoxy-2-(1-methyl-2-oxo-1,2-dihydropyridin-4-yl)-N-[3-(1H-pyrazol-3-yl)propyl]quinoline-7-carboxamide]
inhibition at 1 µM (hNAMPT protein): 100%
IC50 (hNAMPT protein): 10 to 50 nM
viability at 1.667 µM (PC3 cells): 2%

inhibition at 1 µM (hNAMPT protein): 94%
IC50 (hNAMPT protein): 10 to 50 nM
Compound: COCCOc1cc(-c2ccc(F)cc2)nc2cc(C(=O)NCCCc3cc[nH]n3)ccc12 [Compound I-120, 2-(4-fluorophenyl)-4-(2-methoxyethoxy)-N-[3-(1H-pyrazol-3-yl)propyl]quinoline-7-carboxamide]
viability at 1.667 µM (PC3 cells): 2%
